The source of these data is patent publication EP4549424A1, “NEW LITHIUM EXTRACTING AGENT AND LIQUID ORGANIC MIXTURE THEREOF, AND METHOD FOR EXTRACTING LITHIUM BY MEANS OF EXTRACTION” (Beijing Salt Lake Technology Development Company Limited, priority 2022, dated 2024).

In brackets after ≈: the same amount, converted by molar mass. Where two headings read alike, the source gives them in different places.

Data set [1] in a line: pH of aqueous phase after extraction or stripping.
A short description of data set [2]: Liquid-liquid extraction from aqueous lithium-containing solution, ICP detection: sodium.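 Also: sodium measured by inductively coupled plasma optical emission spectrometry in the diluted aqueous phase left after shaking with the organic phase and phase separation.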
Data set [3] can be described thus: Liquid-liquid extraction from aqueous lithium-containing solution, ICP detection: lithium.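 Also: component concentrations in the aqueous phase were measured by inductively coupled plasma optical emission spectrometry after shaking and phase separation.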
Data set [4] is described as follows: Liquid-liquid extraction from aqueous lithium-containing solution, ICP detection: potassium.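 Also: analysis by ICP optical emission spectrometry.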 As to conditions: organic phase and phase ratio per example.
The conditions of data set [5]: pH 11.48.
For data set [6] the following is noted: pH 11.48. This is another data set of the same source.
For data set [7] the following is noted: room temperature; public literature (www.chemicalbook.com; J. Chem. Eng. Data 2008, 53, 8, 1996-1998); cited from earlier work.
The nature of data set [8]: physchem. On the procedure: The solution loss rate is evaluated through solubility in water.
[9] abbreviates: feed B1 (cLi 0.807, cNa 56.12 g/L, pH 11.48), organic phase and phase ratio per example.
The mark [10] stands for this setting: feed B7 (cLi 0.833, cNa 55.60, cK 5.37 g/L, pH 12.05), 26°C, organic phase and phase ratio per example.
The mark [11] stands for this setting: feed B7 (cLi 0.833, cNa 55.60, cK 5.37 g/L, pH 12.05), 26°C.
The mark [12] stands for this setting: feed B3 (cLi 0.937, cNa 119.10, cK 43.03 g/L, pH 9.60), organic phase and phase ratio per example.

For “2-hydroxy-2-phenylacetophenone [Example 41]”, the “pH, remaining aqueous phase R1” value in data set [1] (feed B1 (pH 11.48)) turned out to be 10.1. Further, the “extraction rate for sodium ions” value in data set [2] (setting [9]) is 11.8%. In addition, in data set [3] (setting [9]), the “extraction rate for lithium ions” value came to 69.3% and the “separation factor of Li/Na” value is 16.8.
As to “2-hydroxy-5-methoxyacetophenone [Example 30]”, the “pH, remaining aqueous phase R1” value in data set [1] (feed B7 (pH 12.05)) is given as 10.30. The “extraction rate for sodium ions” value in data set [2] (setting [10]) is listed as 10.86%. Also, in data set [3] (setting [10]), the “extraction rate for lithium ions” value stood at 60.26% and the “separation factor of Li/Na” value amounted to 12.4. Besides, in data set [4] (setting [11]), the “extraction rate for potassium ions” value is listed as 7.08%.
For the compound 2-hydroxydibenzophenone [Example 1], the “pH, remaining aqueous phase R1” value in data set [1] (feed B1 (pH 11.48)) is 10.12. In addition, the “cLi, remaining aqueous phase R1” value in data set [5] worked out at 0.257 g/L. Moreover, the “cNa, remaining aqueous phase R1” value in data set [6] was 50.50 g/L. The “extraction rate for sodium ions” value in data set [2] (pH 11.48) is reported as 10%. In addition, in data set [3] (pH 11.48), the “extraction rate for lithium ions” value is 68.2% and the “separation factor of Li/Na” value is 19.2.
Consider `O=C(c1ccccc1)c1ccc(O)cc1O` [2,4-dihydroxydibenzophenone], for which the “solubility in pure water” value in data set [7] was 700 µg/mL (≈ 3270 µM).
For the compound `COc1ccc(C(=O)c2ccccc2)c(O)c1` [2-hydroxy-4-methoxydibenzophenone], in data set [8] (water), the solubility is less than 1000 µg/mL.
On to `CCCCCCCCOc1cc(O)c(C(=O)c2ccccc2)cc1[N+](=O)[O-]` [2-hydroxy-4-octyloxy-5-nitrodibenzophenone], for which the “solubility in pure water” value in data set [8] turned out to be 10 µg/mL (≈ 26.9 µM).
Take `CCCCCCCCOc1ccc(C(=O)c2ccccc2)c(O)c1[N+](=O)[O-]` [4-octyloxy-3-nitro-2-hydroxydibenzophenone]: in data set [8], the “solubility in pure water” value came to 10 µg/mL (≈ 26.9 µM).
Same read-out and setting: the figure for `CCCCCOc1ccc(C(=O)c2ccccc2)c(O)c1` [4-pentyloxy-2-hydroxydibenzophenone] is 50 µg/mL (≈ 176 µM).
As for `O=C(c1ccccc1)c1cc([N+](=O)[O-])c(OCc2ccccc2)cc1O` [Example 12, 4-benzyloxy-5-nitro-2-hydroxydibenzophenone], the “pH, remaining aqueous phase R1” value in data set [1] (feed B3 (pH 9.60)) was 8.66. Also, the “extraction rate for sodium ions” value in data set [2] (setting [12]) is 10.1%. Further, in data set [3] (setting [12]), the “extraction rate for lithium ions” value stood at 85.7%, the “separation factor of Li/K” value came to 66.0 and the “separation factor of Li/Na” value is recorded as 53.4. Moreover, in data set [4] (feed B3 (cLi 0.937, cNa 119.10, cK 43.03 g/L, pH 9.60)), the “extraction rate for potassium ions” value was determined as 8.3%.
On to `COc1ccc(C(C)=O)c(O)c1OC` [Example 33, 2-hydroxy-3,4-dimethoxyacetophenone], for which the “extraction rate for sodium ions” value in data set [2] (setting [10]) came out at 11.94%. Further, in data set [3] (setting [10]), the “extraction rate for lithium ions” value came out at 50.06% and the “separation factor of Li/Na” value amounted to 7.4. In data set [4] (setting [11]), the “cK, remaining aqueous phase R1” value came out at 4.95 g/L and the “extraction rate for potassium ions” value turned out to be 7.8%.
Take `CC(=O)c1cccc([N+](=O)[O-])c1O` [Example 34, 2-hydroxy-3-nitrocetophenone]: in data set [2] (setting [10]), the “extraction rate for sodium ions” value is given as 8.17%. Moreover, in data set [3] (setting [10]), the “extraction rate for lithium ions” value is recorded as 93.28% and the “separation factor of Li/Na” value was 156. For the same compound, the “extraction rate for potassium ions” value in data set [4] (setting [11]) was 4.5%.
With `CC(=O)c1ccc([N+](=O)[O-])cc1O` [Example 35, 2-hydroxy-4-nitrocetophenone], the “extraction rate for sodium ions” value in data set [2] (setting [10]) is 7.09%. In data set [3] (setting [10]), the “extraction rate for lithium ions” value was 91.72% and the “separation factor of Li/Na” value was 145. Also, in data set [4] (setting [11]), the “extraction rate for potassium ions” value is recorded as 3.0%.
For `CC(=O)c1c(O)cccc1[N+](=O)[O-]` [Example 36, 2-hydroxy-6-nitrocetophenone], in that order: 8.2%, 81.1%, 48 and 9.3%.
Take `CC(=O)c1cc(Cl)cc([N+](=O)[O-])c1O` [Example 37, 5-chloro-2-hydroxy-3-nitrocetophenone]: the “extraction rate for sodium ions” value in data set [2] (setting [10]) was 8.7%. In addition, in data set [3] (setting [10]), the “extraction rate for lithium ions” value came out at 92.1% and the “separation factor of Li/Na” value was 120. For the same compound, in data set [4] (setting [11]), the “cK, remaining aqueous phase R1” value turned out to be 4.93 g/L and the “extraction rate for potassium ions” value was found to be 9.2%.
For `O=C(c1ccccc1)c1cc(Cl)ccc1O` [Example 38, 2-hydroxy-5-chlorodibenzophenone], in that order: 8.7%, 56.06%, 13.5, 4.99 g/L and 7.1%.
In the case of `CC(=O)c1cc(I)ccc1O` [Example 39, 2-hydroxy-5-iodoacetophenone], the “extraction rate for sodium ions” value in data set [2] (setting [10]) came out at 10.3%. In addition, in data set [3] (setting [10]), the “extraction rate for lithium ions” value came to 48% and the “separation factor of Li/Na” value amounted to 8. The “extraction rate for potassium ions” value in data set [4] (setting [11]) is listed as 8.5%.
On to `O=C(CC(=O)C(F)(F)F)c1ccccc1` [benzoyltrifluoroacetone], for which the “solubility in pure water” value in data set [7] is 240 µg/mL (≈ 1110 µM).
